According to ChEMBL document CHEMBL4177587, “SIRT6 inhibitors with salicylate-like structure show immunosuppressive and chemosensitizing effects” (Bioorg Med Chem, 2017):
Values after ≈ are worked out from the molar mass of the structure shown. Active and inactive are the calls of the source. The rule behind the calls is not given here.

Assays:
[1] = biological target: T1, NAD-dependent protein deacylase sirtuin-6 (Homo sapiens, UniProt Q8N6T7); assay: Inhibition of human recombinant SIRT6 assessed as reduction in NAD+-dependent deacetylase activity at 200 uM using Arg-His-Lys-Lys(epsilon-acetyl)-AMC substrate and NAD+ by fluorescence based assay
[2] = biological target: T2, NAD-dependent protein deacetylase sirtuin-2 (Homo sapiens, UniProt Q8IXJ6); assay: Inhibition of human recombinant SIRT2 assessed as reduction in NAD+-dependent deacetylase activity using Arg-His-Lys-Lys(epsilon-acetyl)-AMC substrate and NAD+ by fluorescence based assay
T2 sequence (Q8IXJ6 whole entry): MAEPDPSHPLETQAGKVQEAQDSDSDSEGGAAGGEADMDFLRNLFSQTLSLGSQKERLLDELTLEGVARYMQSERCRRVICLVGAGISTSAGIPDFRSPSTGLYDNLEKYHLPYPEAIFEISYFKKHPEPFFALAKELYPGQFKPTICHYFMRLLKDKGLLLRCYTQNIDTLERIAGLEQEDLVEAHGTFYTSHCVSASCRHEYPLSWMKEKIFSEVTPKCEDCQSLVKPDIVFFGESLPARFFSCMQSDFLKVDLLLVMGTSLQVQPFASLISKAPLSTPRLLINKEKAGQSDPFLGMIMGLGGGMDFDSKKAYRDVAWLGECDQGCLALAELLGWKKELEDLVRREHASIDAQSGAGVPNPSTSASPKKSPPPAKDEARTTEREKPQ

[3] = Fraction unbound in mouse plasma at 1 ug/ml by rapid equilibrium dialysis; format: ADME, cell-free
[4] = biological target: T1, NAD-dependent protein deacylase sirtuin-6; assay: Inhibition of SIRT6 in human BxPC3 cells assessed as increase in 2-NBDG uptake at 100 uM incubated for 18 hrs by glucose uptake assay; format: cell-based
[5] = biological target: T1, NAD-dependent protein deacylase sirtuin-6; assay: Competitive inhibition of human recombinant SIRT6 assessed as reduction in NAD+-dependent deacetylase activity at 50 uM using varying Arg-His-Lys-Lys(epsilon-acetyl)-AMC substrate and fixed NAD+ by fluorescence based assay based double-reciprocal plot
[6] = Cmax in ICR mouse at 5 mg/kg, ip by LC-MS/MS method; format: ADME, organism-based; set-up: dose 5 mg/kg, route intraperitoneal; conditions: in vivo
[7] = Intrinsic aqueous solubility in 1.96% Soluplus solution; format: physicochemical
[8] = biological target: T1, NAD-dependent protein deacylase sirtuin-6; assay: Inhibition of SIRT6 in human BxPC3 cells assessed as potentiation of gemcitabine-induced cytotoxicity at 30 uM incubated for 72 hrs by Cell-titer96 aqueous one assay; format: cell-based
[9] = biological target: T3, NAD-dependent protein deacetylase sirtuin-1 (Homo sapiens, UniProt Q96EB6); assay: Inhibition of human recombinant SIRT1 assessed as reduction in NAD+-dependent deacetylase activity using Arg-His-Lys-Lys(epsilon-acetyl)-AMC substrate and NAD+ by fluorescence based assay
T3 sequence (Q96EB6 whole entry): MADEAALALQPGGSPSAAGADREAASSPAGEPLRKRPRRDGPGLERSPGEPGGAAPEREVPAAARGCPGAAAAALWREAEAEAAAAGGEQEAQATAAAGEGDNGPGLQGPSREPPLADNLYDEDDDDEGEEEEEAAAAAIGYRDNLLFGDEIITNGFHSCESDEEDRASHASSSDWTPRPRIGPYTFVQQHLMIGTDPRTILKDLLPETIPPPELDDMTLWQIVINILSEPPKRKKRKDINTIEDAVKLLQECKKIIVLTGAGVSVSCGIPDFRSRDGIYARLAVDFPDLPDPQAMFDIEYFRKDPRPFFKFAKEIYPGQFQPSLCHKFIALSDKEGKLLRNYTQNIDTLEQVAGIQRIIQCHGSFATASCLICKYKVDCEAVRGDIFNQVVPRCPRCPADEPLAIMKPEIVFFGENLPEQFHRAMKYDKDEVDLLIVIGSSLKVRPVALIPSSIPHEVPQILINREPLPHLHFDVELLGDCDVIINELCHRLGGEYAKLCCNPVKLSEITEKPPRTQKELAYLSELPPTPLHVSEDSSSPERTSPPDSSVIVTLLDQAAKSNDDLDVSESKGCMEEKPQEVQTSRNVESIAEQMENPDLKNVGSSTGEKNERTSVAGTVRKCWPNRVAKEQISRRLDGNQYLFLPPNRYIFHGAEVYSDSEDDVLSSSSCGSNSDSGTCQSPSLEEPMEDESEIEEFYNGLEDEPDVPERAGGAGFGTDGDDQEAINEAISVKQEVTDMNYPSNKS

[10] = biological target: T1, NAD-dependent protein deacylase sirtuin-6; assay: Competitive inhibition of human recombinant SIRT6 assessed as reduction in NAD+-dependent deacetylase activity at 50 uM using fixed Arg-His-Lys-Lys(epsilon-acetyl)-AMC substrate and varying NAD+ by fluorescence based assay based double-reciprocal plot
[11] = AUC (0 to infinity) in ICR mouse at 5 mg/kg, ip by LC-MS/MS method; format: ADME, organism-based; set-up: dose 5 mg/kg, route intraperitoneal, time infinity; conditions: in vivo
[12] = Fraction unbound in mouse plasma at 10 ug/ml by rapid equilibrium dialysis; format: ADME, cell-free
[13] = Intrinsic aqueous solubility in surfactant in 9% Tween 80; format: physicochemical; conditions: 9% Tween 80 surfactant solution
[14] = test system: BXPC-3; assay: Toxicity in human BxPC3 cells assessed as reduction in cell viability at 30 uM incubated for 72 hrs by Cell-titer96 aqueous one assay; format: cell-based; conditions: bxpc-3, 72 h
[15] = Fraction unbound in human plasma at 10 ug/ml by rapid equilibrium dialysis; format: ADME, cell-free
[16] = biological target: T1, NAD-dependent protein deacylase sirtuin-6; assay: Inhibition of SIRT6 in human BxPC3 cells assessed as reduction in TNFalpha production at 100 uM incubated for 18 hrs by ELISA method; format: cell-based
[17] = Tmax in ICR mouse at 5 mg/kg, ip by LC-MS/MS method; format: ADME, organism-based; conditions: in vivo
[18] = Stability in mouse plasma assessed as half life at 1 uM at 37 degC measured after 4 hrs; format: ADME, cell-free
[19] = test system: Mus musculus; assay: Toxicity in ICR mouse assessed as induction of abnormalities at 5 mg/kg, ip; format: organism-based; conditions: in vivo
[20] = Intrinsic aqueous solubility in 23% Captisol; format: physicochemical
[21] = AUC (0 to t) in ICR mouse at 5 mg/kg, ip by LC-MS/MS method; format: ADME, organism-based; conditions: in vivo
[22] = Intrinsic aqueous solubility in PBS at pH 7.4; format: physicochemical
[23] = biological target: T1, NAD-dependent protein deacylase sirtuin-6; assay: Inhibition of SIRT6 in human BxPC3 cells assessed as increase in H3K9 acetylation by immunoblotting relative to untreated control; format: cell-based; set-up: concentration or dose not given beside the values
[24] = Fraction unbound in human plasma at 1 ug/ml by rapid equilibrium dialysis; format: ADME, cell-free
[25] = Ionisation constant, pKa of the compound; format: physicochemical
[26] = MRT (0 to infinity) in ICR mouse at 5 mg/kg, ip by LC-MS/MS method; format: ADME, organism-based; conditions: in vivo
[27] = Terminal half life in ICR mouse at 5 mg/kg, ip by LC-MS/MS method; format: ADME, organism-based; conditions: in vivo, read-out: beta t1/2 (converted)
[28] = Partition coefficient, log P of the compound; format: physicochemical; conditions: octanol/water
[29] = biological target: T1, NAD-dependent protein deacylase sirtuin-6; assay: Inhibition of SIRT6 in human PBMC cells assessed as reduction in staphylococcal enterotoxin B-induced cell proliferation by measuring CFSE signal level at 200 uM incubated for 120 hrs by CFSE staining based flow FACS assay (reference value: 65%); set-up: scale not given: the % may be the effect or the level left
[30] = biological target: T1, NAD-dependent protein deacylase sirtuin-6; assay: Inhibition of SIRT6 in human PBMC cells assessed as increase in H3K56 acetylation at 200 uM incubated for 24 hrs by immunoblotting relative to untreated control; format: cell-based
[31] = biological target: T1, NAD-dependent protein deacylase sirtuin-6; assay: Inhibition of SIRT6 in human PBMC cells assessed as reduction in PHA-induced cell proliferation at 200 uM incubated for 120 hrs by ATPlite assay; format: cell-based
[32] = biological target: T1, NAD-dependent protein deacylase sirtuin-6; assay: Inhibition of SIRT6 in human PBMC cells assessed as reduction in staphylococcal enterotoxin B-induced cell proliferation at 200 uM incubated for 120 hrs by ATPlite assay; format: cell-based
[33] = biological target: T1, NAD-dependent protein deacylase sirtuin-6; assay: Inhibition of SIRT6 in human PBMC cells assessed as reduction in PHA-induced cell proliferation by measuring CFSE signal level at 200 uM incubated for 120 hrs by CFSE staining based flow FACS assay (reference value: 66%); set-up: scale not given: the % may be the effect or the level left
[34] = biological target: T1, NAD-dependent protein deacylase sirtuin-6; assay: Inhibition of SIRT6 in human PBMC cells assessed as increase in H3K9 acetylation at 200 uM incubated for 24 hrs by immunoblotting relative to untreated control; format: cell-based
[35] = Intrinsic aqueous solubility in all polymers solutions; format: physicochemical
[36] = Intrinsic aqueous solubility in 23% Kleptose HPB; format: physicochemical
[37] = Intrinsic aqueous solubility in surfactant in 9% TPGS; format: physicochemical; conditions: 9% TPGS surfactant solution
[38] = biological target: T1, NAD-dependent protein deacylase sirtuin-6; assay: Inhibition of human recombinant SIRT6 assessed as reduction in NAD+-dependent deacetylase activity using Arg-His-Lys-Lys(epsilon-acetyl)-AMC substrate and NAD+ by fluorescence based assay
[39] = species: Homo sapiens; assay: Selectivity index, ratio of IC50 for human recombinant SIRT2 to IC50 for human recombinant SIRT6
[40] = species: Homo sapiens; assay: Selectivity index, ratio of IC50 for human recombinant SIRT1 to IC50 for human recombinant SIRT6

T1 sequence (Q8N6T7 whole entry): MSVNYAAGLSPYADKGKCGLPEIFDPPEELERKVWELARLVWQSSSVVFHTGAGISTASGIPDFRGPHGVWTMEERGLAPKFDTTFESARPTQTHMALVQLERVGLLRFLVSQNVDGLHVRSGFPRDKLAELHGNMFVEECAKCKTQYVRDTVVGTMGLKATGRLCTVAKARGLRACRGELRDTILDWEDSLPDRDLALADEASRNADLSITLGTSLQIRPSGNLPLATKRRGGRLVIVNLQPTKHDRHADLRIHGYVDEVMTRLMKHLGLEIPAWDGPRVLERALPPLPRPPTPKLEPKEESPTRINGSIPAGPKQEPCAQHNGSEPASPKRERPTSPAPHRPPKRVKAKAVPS

SMILES: Cc1ccc(C(=O)O)cc1NC(=O)c1cccc(NC(=O)c2ccco2)c1
- inhibition [1]: 4%

SMILES: CCC(=O)Nc1ccc(C(=O)Nc2ccc(C(=O)O)c(O)c2)cc1
- inhibition [1]: 70%

SMILES: O=C(Nc1ccc(O)c(C(=O)O)c1)c1ccc(NC(=O)c2ccco2)cc1
- IC50 [2]: 453 µM
- fraction unbound at 1 ug/ml [3]: 0.029
- fold change (FC) [4]: 1.4
- inhibition [5]: Active
- Cmax [6]: 3890 ng/mL
- solubility [7]: 760 µg/mL (≈ 2070 µM)
- inhibition [8]: Active
- IC50 [9]: 783 µM
- inhibition [10]: Active
- AUC(0-inf) [11]: 2840 ng·h/mL
- fraction unbound at 10 ug/ml [12]: 0.046
- solubility [13]: 1700 µg/mL (≈ 4640 µM)
- Activity [14]: Non-Toxic
- inhibition [1]: 100%
- fraction unbound at 10 ug/ml [15]: 0.024
- inhibition [16]: 78%
- Tmax [17]: 10.2 min
- t1/2 ([18]; 4 h, 1 µM): Stable
- Activity [19]: Non-Toxic
- solubility [20]: 650 µg/mL (≈ 1770 µM)
- AUC(0-t) [21]: 2830 ng·h/mL
- solubility [22]: 1400 µg/mL (≈ 3820 µM)
- fold change (FC) [23]: 1.9
- fraction unbound at 1 ug/ml [24]: 0.019
- pKa [25]: 2.58
- MRT inf [26]: 48.6 min
- half-life [27]: 91.8 min
- logP [28]: 2.6

SMILES: O=C(O)c1cccc(NC(=O)c2cccc(N3C(=O)CCS3(=O)=O)c2)c1
- inhibition [1]: 5%

SMILES: O=C(Nc1ccc(C(=O)O)c(O)c1)c1ccc(NC(=O)c2ccco2)cc1
- IC50 [2]: 482 µM
- fold change (FC) [4]: 1.7
- inhibition [5]: Active
- Activity [29]: 27%
- inhibition [8]: Active
- IC50 [9]: 599 µM
- inhibition [10]: Active
- inhibition [30]: Active
- Activity [14]: Non-Toxic
- inhibition [1]: 100%
- inhibition [31]: Active
- inhibition [16]: 80%
- inhibition [32]: Active
- Activity [33]: 29%
- inhibition [34]: Active
- fold change (FC) [23]: 2.5

SMILES: O=C(Nc1ccc(C(=O)O)c(O)c1)c1ccc(N2C(=O)c3ccccc3C2=O)cc1
- inhibition [1]: 17%

SMILES: O=C(Nc1ccc(C(=O)O)c(O)c1)c1cccc(N2C(=O)CCS2(=O)=O)c1
- inhibition [1]: 44%

SMILES: O=C(O)c1cccc(NC(=O)c2cccc(NC(=O)C3CCCO3)c2)c1 (configuration not stated)
- inhibition [1]: inactive

SMILES: O=C(Nc1ccc(O)cc1C(=O)O)c1ccc(N2C(=O)c3ccccc3C2=O)cc1
- IC50 [2]: 333 µM
- solubility [35]: 5 µg/mL (≈ 12.4 µM)
- fraction unbound at 1 ug/ml [3]: < 0.01
- solubility [36]: 50 µg/mL (≈ 124 µM)
- fold change (FC) [4]: 1.1
- solubility [37]: 50 µg/mL (≈ 124 µM)
- IC50 [38]: 20 µM
- IC50 [9]: 424 µM
- fraction unbound at 10 ug/ml [12]: < 0.01
- Ratio IC50 [39]: 16.6
- inhibition [1]: 100%
- fraction unbound at 10 ug/ml [15]: < 0.001
- inhibition [16]: 13%
- half-life at 1 µM [18]: 462 min
- Ratio IC50 [40]: 21.2
- solubility [22]: 70 µg/mL (≈ 174 µM)
- fold change (FC) [23]: 0.9
- fraction unbound at 1 ug/ml [24]: < 0.001
- pKa [25]: 3.22
- logP [28]: 3.6

SMILES: CCC(CC)C(=O)Nc1cccc(C(=O)Nc2cccc(C(=O)O)c2)c1
- inhibition [1]: 54%

SMILES: O=C(O)c1cccc(NC(=O)c2cccc(NC(=O)c3cccs3)c2)c1
- inhibition [1]: 39%
